Measurements reported in PubChem BioAssay AID2060601 (Molecular Pharmacology Branch, DTP, NCI, 2025).

System: 874868-142-R-J2-PDC complex spheroids, growth % test/control
Assay: Anticancer human tumor 874868-142-R-J2-PDC patient-derived head and neck squamous carcinoma cell line growth inhibition [CLK]
Settings: for IC50: curve of first compound; for viability, T/C: stronger effect = lower value
Source text: A high-throughput screen of multi-cell type tumor spheroids was designed to identify active combinations of […] and targeted small molecules. Complex spheroids include a stromal component modeled by human endothelial cells (HUVEC) and fibroblasts modeled by human mesenchymal stem cells (MSCs). The concentration ranges selected for each drug and investigational agent were based upon clinically achievable concentrations if the clinical Cmax of the agent was known.
Compounds. The drugs and investigational agents: cirtuvivint (SM08502; NSC835563), CC-671 (NSC850746), vemurafenib (NSC761431), tapotoclax (NSC804041), sotorasib (NSC818433), adagrasib (NSC831453), MRTX-1133 (NSC836407), BAY2416964 (NSC825713), copanlisib (NSC816437), inavolisib (NSC800729), abemaciclib (NSC768073), osimertinib (NSC779217), entinostat (NSC756642), eltanexor (KPT-8602, NSC794443), venetoclax (NSC766270), ceralasertib (NSC777638), bortezomib (NSC756655), olaparib (NSC753686), talazoparib (NSC767125), alisertib (NSC759677), peposertib (NSC802822), gemcitabine (NSC613327), 5-fluorouracil (NSC19893), SN-38 (NSC673596), oxaliplatin (NSC266046), paclitaxel (NSC125973), and doxorubicin (NSC123127), were obtained from the National Cancer Institute (NCI) Developmental Therapeutics Program Chemical Repository. The FDA-approved anticancer drug set is available from the Developmental Therapeutics Program at https://dtp.cancer.gov/organization/dscb/obtaining/available plates.htm. […] The stock solutions were prepared in dimethyl sulfoxide (DMSO, Sigma-Aldrich, St. Louis, MO, cat. D2650), except for the platinum complexes which were prepared in saline (Quality Biological, Gaithersburg, MD, cat. 114-055-101), at 800-fold the tested concentration and stored at -70 degrees C prior to their use. All drugs and investigational agents were tested over a range starting from a high concentration at or near the clinical Cmax and decreasing in half-log increments. If the clinical Cmax for an agent had not been determined, the highest concentration tested was 10 microM.
Cell Culture. All cells were maintained in an incubator at 37 degrees C and 5% CO2 with 95% humidity. The PDC lines were cultured according to standard operating procedures established by the NCI PDMR. Briefly, all PDCs were thawed and cultured in Matrigel-coated flasks prepared with a working solution of 1X Ham's F-12 nutrient mix, without supplementation (Invitrogen, Waltham, MA, cat. 11765054), 100 U/mL penicillin-streptomycin (Invitrogen, cat. 15140122), and 2.5% Matrigel (Corning Inc., Corning, NY, cat. 354248) for the first three passages. The 947758-054-R-J2-PDC line was cultured in 6B/Colon 1A media, which includes advanced DMEM/F-12 (Thermo Fisher Scientific, cat. 12634028), 10 mM HEPES (Thermo Fisher Scientific, cat. 15630080), 1X GlutaMAX supplement (Thermo Fisher Scientific, cat. 35050061), 0.1 mg/mL primocin (InvivoGen, cat. ant-pm-2), 10% defined fetal bovine serum, heat inactivated (HyClone Laboratories Inc., cat. SH30070.03HI), 1.25 mM N-Acetyl-L-cysteine (Sigma-Aldrich, cat. A9165), 10 mM nicotinamide (Sigma-Aldrich, cat. N0636), 1X B-27 supplement (Thermo Fisher Scientific, cat. 17504044), 1X N-2 supplement (Thermo Fisher Scientific, cat. 17502048), and 10 microM Y-27632 dihydrochloride (Tocris Bioscience, cat. 1254). The 876862-298-R-J1-PDC was cultured in 6E media, which includes all 6B/Colon 1A media components plus 50% L-WRN conditioned media (ATCC, cat. CRL-3276), 50 ng/mL recombinant human EGF recombinant protein (hEGF; Thermo Fisher Scientific, cat. PHG0311), 10 ng/mL recombinant human fibroblast growth factor 10 (hGFG-10; PeproTech, cat. 100-26), 1 ng/mL recombinant human fibroblast growth factor 2 (hFGF-2; PeproTech, cat. 100-18B), and 1 µM prostaglandin E2 (PGE2; Tocris, cat. 2296). The 227483-062-R1-J1-PDC line was cultured in Panc media, containing all 6E components except hFGF-2, with the addition of 500 nM SB-431542 (Selleckchem, cat. S1067) and 10 nM gastrin (Tocris, cat. 3006). […]
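Further: spheroids exposed to the compounds for 7 days.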

Q: For `C=CC(=O)Nc1cc(Nc2nccc(-c3cn(C)c4ccccc34)n2)c(OC)cc1N(C)CCN(C)C` + CN1CCN(c2cc(C(=O)Nc3cc4cc(-c5cnn(C)c5)ccc4cn3)ccn2)CC1, which IC50 (second compound 0.0316 µM) is on record?
A: The IC50 was 0.0519 µM.

Q: And the IC50 (second compound 0.1 µM)?
A: Its IC50 is 0.0219 µM.

Q: And the IC50 (second compound 0.316 µM)?
A: The IC50 was less than 0.000949 µM.

Q: What about the IC50 (second compound 1 µM) of the same molecule?
A: The IC50 was less than 0.000949 µM.

Q: And the IC50 (second compound 3.16 µM)?
A: The IC50 was less than 0.000949 µM.

Q: What about the IC50 (second compound 10 µM) of the same molecule?
A: The IC50 was less than 0.000949 µM.

Q: What about the viability, T/C (second compound 0.0316 µM, first compound 0.000949 µM) of the same molecule?
A: The viability, T/C was 84.1%.

Q: And the viability, T/C (second compound 0.0316 µM, first compound 0.003 µM)?
A: Its viability, T/C is 90.5%.

Q: And the viability, T/C (second compound 0.0316 µM, first compound 0.00949 µM)?
A: Its viability, T/C is 80.3%.

Q: And the viability, T/C (second compound 0.0316 µM, first compound 0.03 µM)?
A: The viability, T/C was 61.9%.

Q: What about the viability, T/C (second compound 0.0316 µM, first compound 0.0949 µM) of the same molecule?
A: Its viability, T/C is 37.1%.

Q: And the viability, T/C (second compound 0.0316 µM, first compound 0.3 µM)?
A: Its viability, T/C is 27.3%.

Q: And the viability, T/C (second compound 0.1 µM, first compound 0.000949 µM)?
A: Its viability, T/C is 76%.

Q: And the viability, T/C (second compound 0.1 µM, first compound 0.003 µM)?
A: The viability, T/C was 70.6%.

Q: What about the viability, T/C (second compound 0.1 µM, first compound 0.00949 µM) of the same molecule?
A: Its viability, T/C is 59.1%.

Q: And the viability, T/C (second compound 0.1 µM, first compound 0.03 µM)?
A: The viability, T/C was 49.6%.

Q: What about the viability, T/C (second compound 0.1 µM, first compound 0.0949 µM) of the same molecule?
A: The viability, T/C was 26.8%.

Q: And the viability, T/C (second compound 0.1 µM, first compound 0.3 µM)?
A: The viability, T/C was 22%.

Q: What about the viability, T/C (second compound 0.316 µM, first compound 0.000949 µM) of the same molecule?
A: Its viability, T/C is 19.2%.

Q: And the viability, T/C (second compound 0.316 µM, first compound 0.003 µM)?
A: Its viability, T/C is 16.2%.

Q: And the viability, T/C (second compound 0.316 µM, first compound 0.00949 µM)?
A: The viability, T/C was 19.7%.

Q: And the viability, T/C (second compound 0.316 µM, first compound 0.03 µM)?
A: The viability, T/C was 9.31%.

Q: What about the viability, T/C (second compound 0.316 µM, first compound 0.0949 µM) of the same molecule?
A: Its viability, T/C is 15.2%.

Q: What about the viability, T/C (second compound 0.316 µM, first compound 0.3 µM) of the same molecule?
A: Its viability, T/C is 7.92%.

Q: And the viability, T/C (second compound 1 µM, first compound 0.000949 µM)?
A: The viability, T/C was 0.41%.

Q: What about the viability, T/C (second compound 1 µM, first compound 0.003 µM) of the same molecule?
A: Its viability, T/C is 0.88%.

Q: And the viability, T/C (second compound 1 µM, first compound 0.00949 µM)?
A: Its viability, T/C is 1.96%.

Q: What about the viability, T/C (second compound 1 µM, first compound 0.03 µM) of the same molecule?
A: Its viability, T/C is 0.37%.

Q: What about the viability, T/C (second compound 1 µM, first compound 0.0949 µM) of the same molecule?
A: The viability, T/C was 0.71%.

Q: And the viability, T/C (second compound 1 µM, first compound 0.3 µM)?
A: Its viability, T/C is 0.79%.

Q: And the viability, T/C (second compound 3.16 µM, first compound 0.000949 µM)?
A: Its viability, T/C is 0.27%.

Q: What about the viability, T/C (second compound 3.16 µM, first compound 0.003 µM) of the same molecule?
A: Its viability, T/C is 0.34%.

Q: And the viability, T/C (second compound 3.16 µM, first compound 0.00949 µM)?
A: Its viability, T/C is 0.26%.

Q: And the viability, T/C (second compound 3.16 µM, first compound 0.03 µM)?
A: Its viability, T/C is 0.66%.

Q: What about the viability, T/C (second compound 3.16 µM, first compound 0.0949 µM) of the same molecule?
A: Its viability, T/C is 4.28%.

Q: What about the viability, T/C (second compound 3.16 µM, first compound 0.3 µM) of the same molecule?
A: Its viability, T/C is 0.48%.

Q: And the viability, T/C (second compound 10 µM, first compound 0.000949 µM)?
A: The viability, T/C was 7.4%.

Q: What about the viability, T/C (second compound 10 µM, first compound 0.003 µM) of the same molecule?
A: Its viability, T/C is 0.25%.

Q: What about the viability, T/C (second compound 10 µM, first compound 0.00949 µM) of the same molecule?
A: Its viability, T/C is 3.1%.

Q: What about the viability, T/C (second compound 10 µM, first compound 0.03 µM) of the same molecule?
A: The viability, T/C was 0.21%.

Q: What about the viability, T/C (second compound 10 µM, first compound 0.0949 µM) of the same molecule?
A: Its viability, T/C is 1.3%.

Q: What about the viability, T/C (second compound 10 µM, first compound 0.3 µM) of the same molecule?
A: Its viability, T/C is 2.16%.
